Measured values as given in patent publication US12565491B2, “(Isopropyl-triazolyl)pyridinyl-substituted benzooxazinone or benzothiazinone derivatives and use thereof” (HK INNO.N CORPORATION, priority 2018, dated 2026).

Target: T1, ASK-1 enzyme (Homo sapiens, UniProt Q99683)
T1 construct: purchased Signal Chem M13-11G-10
Assay: Inhibitory ability against ASK-1 enzyme activity (ADP-Glo Kinase Assay)
Type: biochemical
Settings: 250 μM ATP, MBP substrate, 30° C. for 40 minutes
Description: Experimental Example 1: Assay of Inhibitory Ability Against ASK-1 Enzyme Activity (ADP-Glo™ Kinase Assay)
In order to evaluate the inhibitory ability of the compounds of Examples 1 to 25 against ASK-1 enzyme activity, the following experiment was carried out using ADP-Glo™ (Promega, Cat. No. V9101). Each of the compounds was prepared into a solution at concentrations of 0.32 nM, 1.6 nM, 8 nM, 40 nM, 200 nM, 1,000 nM by adding a kinase buffer solution (40 mM Tris, 20 mM MgCl2, 0.1 mg/mL bovine serum albumin in H2O). Subsequently, 250 μM of ATP (Promega, Cat. No. V915A) and 0.5 g/L of MBP substrate (Signal Chem, Cat. No. 42-51N) were added thereto, and the mixture was reacted at 30° C. for 40 minutes in the presence of 15 ng of ASK-1 enzyme (Signal Chem, Cat. No. M13-11G-10). Then, the ADP-Glo™ reagent and a kinase detection reagent were sequentially added thereto and reacted for 40 minutes and 10 minutes, respectively. After completion of the reaction, luminescence was measured using a Synergy™ NEO microplate reader (BioTEK, NEOB-1311189).
The inhibitory ability of the compounds of Examples 1 to 25 against ASK-1 enzyme activity was verified by analyzing data from the measured RLU values. Specifically, the inhibitory ability against ASK-1 enzyme activity was assessed by deriving the residual activity percentage of the ASK-1 enzyme in the samples treated with the compounds at the concentration to be tested, while using the RLU value of the sample not treated with the compounds as a 100% control.

T1 sequence (Q99683 649-946 limits assumed): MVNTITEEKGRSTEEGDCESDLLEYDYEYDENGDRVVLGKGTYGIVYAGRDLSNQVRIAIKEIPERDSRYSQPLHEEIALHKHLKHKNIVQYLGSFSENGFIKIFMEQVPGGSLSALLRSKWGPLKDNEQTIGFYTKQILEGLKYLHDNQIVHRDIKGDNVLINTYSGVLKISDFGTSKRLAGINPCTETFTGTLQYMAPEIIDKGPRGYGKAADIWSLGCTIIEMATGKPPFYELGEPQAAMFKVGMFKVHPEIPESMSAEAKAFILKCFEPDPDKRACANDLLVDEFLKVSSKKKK

Question: `CC(C)n1cc(-c2ccc3c(c2)C(=O)N(c2cccc(-c4nncn4C(C)C)n2)CS3)cn1` [Example 22, 6-(1-isopropyl-1H-pyrazol-4-yl)-3-(6-(4-isopropyl-4H-1,2,4-triazol-3-yl)pyridin-2-yl)-2,3-dihydro-4H-benzo[e][1,3]thiazin-4-one] was tested. Which IC50 did it give?
Answer: Its IC50 is 6.1 nM.

Question: How did the IC50 turn out when `Cc1ncc(-c2ccc3c(c2)C(=O)N(c2cccc(-c4nncn4C(C)C)n2)CS3)cn1` [Example 25, 3-(6-(4-isopropyl-4H-1,2,4-triazol-3-yl)pyridin-2-yl)-6-(2-methylpyrimidin-5-yl)-2,3-dihydro-4H-benzo[e][1,3]thiazin-4-one] was run?
Answer: The IC50 was 76.8 nM.

Question: How did the IC50 turn out when `CC(C)n1cnnc1-c1cccc(N2COc3ccc(-c4cnn(C(F)F)c4)cc3C2=O)n1` [Example 7, 6-(1-(difluoromethyl)-1H-pyrazol-4-yl)-3-(6-(4-isopropyl-4H-1,2,4-triazol-3-yl)pyridin-2-yl)-2,3-dihydro-4H-benzo[e][1,3]oxazin-4-one] was run?
Answer: The IC50 was 33.1 nM.

Question: Which IC50 does the source give for `Cc1cc2c(cc1-c1cnn(C(C)C)c1)C(=O)N(c1cccc(-c3nncn3C(C)C)n1)CO2` [Example 15, 6-(1-isopropyl-1H-pyrazol-4-yl)-3-(6-(4-isopropyl-4H-1,2,4-triazol-3-yl)pyridin-2-yl)-7-methyl-2,3-dihydro-4H-benzo[e][1,3]oxazin-4-one] here?
Answer: Its IC50 is 4.5 nM.

Question: `CC(C)n1cnnc1-c1cccc(N2COc3ccc(-c4cnn(C5CCOC5)c4)cc3C2=O)n1` (stereo not shown) [Example 5, 3-(6-(4-isopropyl-4H-1,2,4-triazol-3-yl)pyridin-2-yl)-6-(1-(tetrahydrofuran-3-yl)-1H-pyrazol-4-yl)-2,3-dihydro-4H-benzo[e][1,3]oxazin-4-one] was tested. Which IC50 did it give?
Answer: Its IC50 is 38.8 nM.

Question: How did the IC50 turn out when `CC(C)n1cnnc1-c1cccc(N2COc3ccc(-c4ccc(C5(C#N)CC5)cc4)cc3C2=O)n1` [Example 12, 1-(4-(3-(6-(4-isopropyl-4H-1,2,4-triazol-3-yl)pyridin-2-yl)-4-oxo-3,4-dihydro-2H-benzo[e][1,3]oxazin-6-yl)phenyl) cyclopropanecarbonitrile] was run?
Answer: Its IC50 is 17 nM.

Question: `CC(C)CCn1cc(-c2ccc3c(c2)C(=O)N(c2cccc(-c4nncn4C(C)C)n2)CO3)cn1` [Example 11, 6-(1-isopentyl-1H-pyrazol-4-yl)-3-(6-(4-isopropyl-4H-1,2,4-triazol-3-yl)pyridin-2-yl)-2,3-dihydro-4H-benzo[e][1,3]oxazin-4-one] was tested. Which IC50 did it give?
Answer: The IC50 was 18.5 nM.

Question: Which IC50 does the source give for `CC(C)n1cnnc1-c1cccc(N2COc3ccc(-c4ccc(S(C)(=O)=O)cc4)cc3C2=O)n1` [Example 2, 3-(6-(4-isopropyl-4H-1,2,4-triazol-3-yl)pyridin-2-yl)-6-(4-(methylsulfonyl)phenyl)-2,3-dihydro-4H-benzo[e][1,3]oxazin-4-one] here?
Answer: The IC50 was 50 nM.

Question: `CC(C)n1cnnc1-c1cccc(N2CSc3ccc(-c4cnn(CC5CC5)c4)cc3C2=O)n1` [Example 21, 6-(1-(cyclopropylmethyl)-1H-pyrazol-4-yl)-3-(6-(4-isopropyl-4H-1,2,4-triazol-3-yl)pyridin-2-yl)-2,3-dihydro-4H-benzo[e][1,3]thiazin-4-one] was tested. Which IC50 did it give?
Answer: Its IC50 is 7.3 nM.

Question: How did the IC50 turn out when `CC(C)n1cnnc1-c1cccc(N2CSc3ccc(-c4cnn(C5CC5)c4)cc3C2=O)n1` [Example 24, 6-(1-cyclopropyl-1H-pyrazol-4-yl)-3-(6-(4-isopropyl-4H-1,2,4-triazol-3-yl)pyridin-2-yl)-2,3-dihydro-4H-benzo[e][1,3]thiazin-4-one] was run?
Answer: The IC50 was 26.2 nM.

Question: How did the IC50 turn out when `Cc1cc2c(cc1-c1cnn(C3CCOC3)c1)C(=O)N(c1cccc(-c3nncn3C(C)C)n1)CO2` (stereo not shown) [Example 18, 3-(6-(4-isopropyl-4H-1,2,4-triazol-3-yl)pyridin-2-yl)-7-methyl-6-(1-(tetrahydrofuran-3-yl)-1H-pyrazol-4-yl)-2,3-dihydro-4H-benzo[e][1,3]oxazin-4-one] was run?
Answer: Its IC50 is 10.6 nM.

Question: `CC(C)n1cnnc1-c1cccc(N2COc3ccc(-c4cnn(C5CC5)c4)cc3C2=O)n1` [Example 8, 6-(1-cyclopropyl-1H-pyrazol-4-yl)-3-(6-(4-isopropyl-4H-1,2,4-triazol-3-yl)pyridin-2-yl)-2,3-dihydro-4H-benzo[e][1,3]oxazin-4-one] was tested. Which IC50 did it give?
Answer: Its IC50 is 13.8 nM.

Question: Which IC50 does the source give for `CC(C)n1cnnc1-c1cccc(N2CSc3ccc(-c4cnc(C5CC5)nc4)cc3C2=O)n1` [Example 23, 6-(2-cyclopropylpyrimidin-5-yl)-3-(6-(4-isopropyl-4H-1,2,4-triazol-3-yl)pyridin-2-yl)-2,3-dihydro-4H-benzo[e][1,3]thiazin-4-one] here?
Answer: Its IC50 is 23.1 nM.

Question: For `CC(C)n1cnnc1-c1cccc(N2COc3ccc(-c4cnn(CC5CC5)c4)cc3C2=O)n1` [Example 1, 6-(1-(cyclopropylmethyl)-1H-pyrazol-4-yl)-3-(6-(4-isopropyl-4H-1,2,4-triazol-3-yl)pyridin-2-yl)-2,3-dihydro-4H-benzo[e][1,3]oxazin-4-one], which IC50 is on record?
Answer: Its IC50 is 9.3 nM.

Question: `CCOC(C)n1cc(-c2cc3c(cc2C)OCN(c2cccc(-c4nncn4C(C)C)n2)C3=O)cn1` (stereo not shown) [Example 20, 6-(1-(1-ethoxyethyl)-1H-pyrazol-4-yl)-3-(6-(4-isopropyl-4H-1,2,4-triazol-3-yl)pyridin-2-yl)-7-methyl-2,3-dihydro-4H-benzo[e][1,3]oxazin-4-one] was tested. Which IC50 did it give?
Answer: Its IC50 is 3.6 nM.

Question: For `CC(C)Cn1cc(-c2ccc3c(c2)C(=O)N(c2cccc(-c4nncn4C(C)C)n2)CO3)cn1` [Example 9, 6-(1-isobutyl-1H-pyrazol-4-yl)-3-(6-(4-isopropyl-4H-1,2,4-triazol-3-yl)pyridin-2-yl)-2,3-dihydro-4H-benzo[e][1,3]oxazin-4-one], which IC50 is on record?
Answer: The IC50 was 11 nM.

Question: `CSc1ncc(-c2cc3c(cc2C)OCN(c2cccc(-c4nncn4C(C)C)n2)C3=O)cn1` [Example 17, 3-(6-(4-isopropyl-4H-1,2,4-triazol-3-yl)pyridin-2-yl)-7-methyl-6-(2-(methylthio)pyrimidin-5-yl)-2,3-dihydro-4H-benzo[e][1,3]oxazin-4-one] was tested. Which IC50 did it give?
Answer: The IC50 was 7.8 nM.

Question: Which IC50 does the source give for `CC(C)n1cnnc1-c1cccc(N2COc3ccc(Nc4nccc(C(F)F)n4)cc3C2=O)n1` [Example 10, 6-(4-(difluoromethyl)pyrimidin-2-ylamino)-3-(6-(4-isopropyl-4H-1,2,4-triazol-3-yl)pyridin-2-yl)-2,3-dihydro-4H-benzo[e][1,3]oxazin-4-one] here?
Answer: The IC50 was 7.2 nM.

Question: `Cc1ccnc(Nc2ccc3c(c2)C(=O)N(c2cccc(-c4nncn4C(C)C)n2)CO3)n1` [Example 4, 3-(6-(4-isopropyl-4H-1,2,4-triazol-3-yl)pyridin-2-yl)-6-(4-methylpyrimidin-2-ylamino)-2,3-dihydro-4H-benzo[e][1,3]oxazin-4-one] was tested. Which IC50 did it give?
Answer: Its IC50 is 7.8 nM.

Question: For `CC(C)n1cnnc1-c1cccc(N2COc3ccc(-c4ccc(Cn5cccn5)cc4)cc3C2=O)n1` [Example 13, 6-(4-((1H-pyrazol-1-yl)methyl)phenyl)-3-(6-(4-isopropyl-4H-1,2,4-triazol-3-yl)pyridin-2-yl)-2,3-dihydro-4H-benzo[e][1,3]oxazin-4-one], which IC50 is on record?
Answer: Its IC50 is 46.4 nM.

Question: How did the IC50 turn out when `CCOC(C)n1cc(-c2ccc3c(c2)C(=O)N(c2cccc(-c4nncn4C(C)C)n2)CO3)cn1` (stereo not shown) [Example 6, 6-(1-(1-ethoxyethyl)-1H-pyrazol-4-yl)-3-(6-(4-isopropyl-4H-1,2,4-triazol-3-yl)pyridin-2-yl)-2,3-dihydro-4H-benzo[e][1,3]oxazin-4-one] was run?
Answer: Its IC50 is 29.2 nM.

Question: How did the IC50 turn out when `CC(C)n1cnnc1-c1cccc(N2COc3ccc(-c4ccncc4)cc3C2=O)n1` [Example 3, 3-(6-(4-isopropyl-4H-1,2,4-triazol-3-yl)pyridin-2-yl)-6-(pyridin-4-yl)-2,3-dihydro-4H-benzo[e][1,3]oxazin-4-one] was run?
Answer: Its IC50 is 9.1 nM.

Question: How did the IC50 turn out when `Cc1cc2c(cc1-c1cncnc1)C(=O)N(c1cccc(-c3nncn3C(C)C)n1)CO2` [Example 16, 3-(6-(4-isopropyl-4H-1,2,4-triazol-3-yl)pyridin-2-yl)-7-methyl-6-(pyrimidin-5-yl)-2,3-dihydro-4H-benzo[e][1,3]oxazin-4-one] was run?
Answer: Its IC50 is 20 nM.

Question: With `CC(C)n1cnnc1-c1cccc(N2COc3ccc(-n4cnc(C5CC5)c4)cc3C2=O)n1` [Example 19, 6-(4-cyclopropyl-1H-imidazol-1-yl)-3-(6-(4-isopropyl-4H-1,2,4-triazol-3-yl)pyridin-2-yl)-2,3-dihydro-4H-benzo[e][1,3]oxazin-4-one] as the molecule, how does the IC50 read?
Answer: The IC50 was 4 nM.

Question: How did the IC50 turn out when `Cc1cc2c(cc1-c1cnn(CC3CC3)c1)C(=O)N(c1cccc(-c3nncn3C(C)C)n1)CO2` [Example 14, 6-(1-(cyclopropylmethyl)-1H-pyrazol-4-yl)-3-(6-(4-isopropyl-4H-1,2,4-triazol-3-yl)pyridin-2-yl)-7-methyl-2,3-dihydro-4H-benzo[e][1,3]oxazin-4-one] was run?
Answer: Its IC50 is 4.4 nM.
